From the supplement of paper PMC8149375

Tests used:
Conditions in all cases: treatment: drug + dasatinib (fixed dose, not stated); 5 days
769-P [1] = experiment: GI50 of drug in presence of dasatinib; higher = less potent
Description: (§1)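 Primary HTS combination arm: 8 RCC cell lines treated with 8 doses (up to 10 uM) of each library drug plus a fixed dose of dasatinib (dose not stated) for 5 days; viability read by CellTiter-Glo and normalised to DMSO. GI50 was fitted with XLfit, AUC is the area under the dose-response curve, and minimum viability is the lowest fraction of DMSO viability across doses.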

786-O [2] = experiment: as above
Description: as §1

A498 [3] = experiment: as above
Description: as §1

ACHN [4] = experiment: as above
Description: as §1

CAKI-1 [5] = experiment: as above
Description: as §1

SN12C [6] = experiment: as above
Description: as §1

TK-10 [7] = experiment: as above
Description: as §1

UO-31 [8] = experiment: as above
Description: as §1

769-P [9] = experiment: minimum viability across doses, drug + dasatinib, relative to DMSO (fraction); higher = less growth inhibition
Description: as §1

786-O [10] = experiment: as above
Description: as §1

A498 [11] = experiment: as above
Description: as §1

ACHN [12] = experiment: as above
Description: as §1

CAKI-1 [13] = experiment: as above
Description: as §1

SN12C [14] = experiment: as above
Description: as §1

TK-10 [15] = experiment: as above
Description: as §1

UO-31 [16] = experiment: as above
Description: as §1

769-P [17] = experiment: AUC of dose-response viability curve, drug + dasatinib, normalised to DMSO (arbitrary (AUC of normalised viability)); higher = less growth inhibition
Description: as §1

786-O [18] = experiment: as above
Description: as §1

A498 [19] = experiment: as above
Description: as §1

ACHN [20] = experiment: as above
Description: as §1

CAKI-1 [21] = experiment: as above
Description: as §1

SN12C [22] = experiment: as above
Description: as §1

TK-10 [23] = experiment: as above
Description: as §1

UO-31 [24] = experiment: as above
Description: as §1

Row | Structure (SMILES) | GI50 of drug (769-P [1]) | GI50 of drug (786-O [2]) | GI50 of drug (A498 [3]) | GI50 of drug (ACHN [4]) | GI50 of drug (CAKI-1 [5]) | GI50 of drug (SN12C [6]) | GI50 of drug (TK-10 [7]) | GI50 of drug (UO-31 [8]) | minimum viability across doses (769-P [9]) | minimum viability across doses (786-O [10]) | minimum viability across doses (A498 [11]) | minimum viability across doses (ACHN [12]) | minimum viability across doses (CAKI-1 [13]) | minimum viability across doses (SN12C [14]) | minimum viability across doses (TK-10 [15]) | minimum viability across doses (UO-31 [16]) | AUC of dose-response viability curve (769-P [17]) | AUC of dose-response viability curve (786-O [18]) | AUC of dose-response viability curve (A498 [19]) | AUC of dose-response viability curve (ACHN [20]) | AUC of dose-response viability curve (CAKI-1 [21]) | AUC of dose-response viability curve (SN12C [22]) | AUC of dose-response viability curve (TK-10 [23]) | AUC of dose-response viability curve (UO-31 [24])
1 | COc1cc2c(Nc3ccc(NC(=O)c4ccccc4)cc3)ncnc2cc1OCCCN1CCOCC1 + Cc1nc(Nc2ncc(C(=O)Nc3c(C)cccc3Cl)s2)cc(N2CCN(CCO)CC2)n1 [dasatinib] | 2910 nM | 1210 nM | 9270 nM | 4.24 nM | 385 nM | > 10000 nM | 4120 nM | 5770 nM | 0.24 | 0.0181 | 0.283 | 0.095 | 0.0572 | 0.383 | 0.191 | 0.0966 | 2.17 | 2.13 | 3.33 | 1.54 | 1.76 | 2.43 | 2.35 | 3.27
2 | Cc1ccc(NC(=O)c2ccc(CN3CCN(C)CC3)cc2)cc1Nc1nc(-c2cccnc2)cs1 [Masitinib (AB1010)] + Cc1nc(Nc2ncc(C(=O)Nc3c(C)cccc3Cl)s2)cc(N2CCN(CCO)CC2)n1 [dasatinib] | 4700 nM | 4050 nM | > 10000 nM | 460 nM | 6750 nM | > 10000 nM | > 10000 nM | 6090 nM | 0.377 | 0.204 | 0.622 | 0.263 | 0.438 | 0.484 | 0.57 | 0.271 | 2.3 | 2.55 | 3.05 | 1.96 | 2.28 | 2.51 | 2.71 | 3.05
3 | CN1CCN(C2CCN(C(=O)Nc3cc(Oc4ccc(NC(=O)C5(C(=O)Nc6ccc(F)cc6)CC5)c(F)c4)ccn3)CC2)CC1 [Golvatinib (E7050)] + Cc1nc(Nc2ncc(C(=O)Nc3c(C)cccc3Cl)s2)cc(N2CCN(CCO)CC2)n1 [dasatinib] | 3670 nM | 434 nM | 9520 nM | 368 nM | 541 nM | 1620 nM | 886 nM | 3090 nM | 0.131 | 0.0302 | 0.335 | 0.0563 | 0.0248 | 0.191 | 0.154 | 0.0151 | 2.3 | 1.93 | 3.93 | 1.63 | 1.89 | 2.19 | 2.09 | 4.48
4 | O=C1NCCc2[nH]c(-c3ccncc3)cc21 + Cc1nc(Nc2ncc(C(=O)Nc3c(C)cccc3Cl)s2)cc(N2CCN(CCO)CC2)n1 [dasatinib] | 8350 nM | 196 nM | 3110 nM | 578 nM | 718 nM | 4170 nM | 2040 nM | 2310 nM | 0.463 | 0.00389 | 0.0141 | 0.0122 | 0.0883 | 0.0225 | 0.185 | 0.0107 | 2.35 | 1.73 | 3.35 | 1.72 | 1.98 | 2.23 | 2.27 | 3.26
5 | COc1ccc(S(=O)(=O)N(C(C)=O)c2ccccc2/C=C/c2cc[n+]([O-])cc2)cc1 [HMN-214] + Cc1nc(Nc2ncc(C(=O)Nc3c(C)cccc3Cl)s2)cc(N2CCN(CCO)CC2)n1 [dasatinib] | 278 nM | 99.7 nM | 387 nM | 5.38 nM | 74.4 nM | 342 nM | 609 nM | 499 nM | 0.0839 | 0.00332 | 0.124 | 0.102 | 0.121 | 0.172 | 0.297 | 0.00841 | 1.95 | 1.18 | 2.04 | 1.15 | 1.32 | 1.78 | 2.02 | 2.65
6 | COc1cc2ncnc(Nc3ccc(F)c(Cl)c3)c2cc1NC(=O)/C=C/CN1CCCCC1 + Cc1nc(Nc2ncc(C(=O)Nc3c(C)cccc3Cl)s2)cc(N2CCN(CCO)CC2)n1 [dasatinib] | 25.5 nM | < 3 nM | 2350 nM | < 3 nM | 485 nM | 567 nM | 53.6 nM | 1160 nM | 0.00783 | 0.0063 | 0.0146 | 0.00207 | 0.00568 | 0.00664 | 0.00803 | 0.0145 | 1.25 | 1.02 | 2.74 | 0.908 | 1.63 | 1.81 | 1.46 | 2.31
7 | C#Cc1cccc(Nc2ncnc3cc(OCCOC)c(OCCO)cc23)c1.Cl [OSI-420 (Desmethyl Erlotinib)] + Cc1nc(Nc2ncc(C(=O)Nc3c(C)cccc3Cl)s2)cc(N2CCN(CCO)CC2)n1 [dasatinib] | 510 nM | < 3 nM | > 10000 nM | 23.1 nM | 1070 nM | > 10000 nM | 2320 nM | 8630 nM | 0.226 | 0.403 | 0.761 | 0.0775 | 0.11 | 0.442 | 0.379 | 0.325 | 1.96 | 2.22 | 3.08 | 1.35 | 1.93 | 2.36 | 2.18 | 3.77
8 | C=CC(=O)Nc1cccc(Oc2nc(Nc3ccc(N4CCN(C)CC4)cc3)ncc2Cl)c1 [WZ3146] + Cc1nc(Nc2ncc(C(=O)Nc3c(C)cccc3Cl)s2)cc(N2CCN(CCO)CC2)n1 [dasatinib] | 523 nM | 878 nM | 3060 nM | 72.3 nM | 345 nM | 997 nM | 373 nM | 553 nM | 0.056 | 0.0305 | 0.301 | 0.034 | 0.00112 | 0.0852 | 0.0372 | 0.00923 | 1.85 | 1.88 | 2.76 | 1.21 | 1.47 | 1.92 | 1.76 | 2.32
9 | COc1cc(OC)c(/C=C/S(=O)(=O)Cc2ccc(OC)c(NCC(=O)[O][Na])c2)c(OC)c1 + Cc1nc(Nc2ncc(C(=O)Nc3c(C)cccc3Cl)s2)cc(N2CCN(CCO)CC2)n1 [dasatinib] | 31.6 nM | 18.1 nM | 78.6 nM | 27.9 nM | 15.7 nM | 163 nM | 148 nM | 58.6 nM | 0.0648 | 0.0033 | 0.138 | 0.088 | 0.0849 | 0.184 | 0.292 | 0.00998 | 1.04 | 0.766 | 1.71 | 1.18 | 0.99 | 1.67 | 1.79 | 1.28
10 | CCOc1cc2ncc(C#N)c(Nc3ccc(F)c(Cl)c3)c2cc1NC(=O)/C=C/CN(C)C [Pelitinib (EKB-569)] + Cc1nc(Nc2ncc(C(=O)Nc3c(C)cccc3Cl)s2)cc(N2CCN(CCO)CC2)n1 [dasatinib] | 48.4 nM | 404 nM | 1080 nM | 7.21 nM | 60.6 nM | 864 nM | 61.1 nM | 216 nM | 0.0321 | 0.00483 | 0.0177 | 0.00232 | 0.0303 | 0.00631 | 0.00649 | 0.0179 | 1.38 | 1.79 | 2.55 | 0.845 | 1.17 | 1.78 | 1.43 | 1.8
11 | Cn1c(=O)n(-c2ccc(C(C)(C)C#N)cc2)c2c3cc(-c4cnc5ccccc5c4)ccc3ncc21 [BEZ235 (NVP-BEZ235)] + Cc1nc(Nc2ncc(C(=O)Nc3c(C)cccc3Cl)s2)cc(N2CCN(CCO)CC2)n1 [dasatinib] | 59.6 nM | 81.3 nM | 152 nM | 34.7 nM | 73.7 nM | 164 nM | 306 nM | 129 nM | 0.0926 | 0.0643 | 0.0638 | 0.0631 | 0.0361 | 0.146 | 0.122 | 0.00603 | 1.35 | 1.44 | 1.65 | 1.23 | 1.35 | 1.63 | 1.84 | 1.66
12 | CCc1cc(Nc2nccc(-c3c(-c4ccc(OC)c(C(=O)Nc5c(F)cccc5F)c4)nc4ccccn34)n2)c(OC)cc1N1CCC(N2CCN(S(C)(=O)=O)CC2)CC1 + Cc1nc(Nc2ncc(C(=O)Nc3c(C)cccc3Cl)s2)cc(N2CCN(CCO)CC2)n1 [dasatinib] | 3100 nM | > 10000 nM | > 10000 nM | > 10000 nM | 3060 nM | > 10000 nM | > 10000 nM | > 10000 nM | 0.445 | 0.641 | 0.849 | 0.488 | 0.406 | 0.644 | 0.678 | 0.86 | 2.19 | 2.71 | 3.42 | 1.97 | 2.19 | 2.4 | 2.59 | 3.28
13 | CN(C[C@@H]1COCCO1)S(=O)(=O)Nc1ccc2ccc3ncc(-c4cnn(C)c4)cc3c(=O)c2c1 [MK-2461] + Cc1nc(Nc2ncc(C(=O)Nc3c(C)cccc3Cl)s2)cc(N2CCN(CCO)CC2)n1 [dasatinib] | 6280 nM | > 10000 nM | > 10000 nM | 10.9 nM | 450 nM | > 10000 nM | 2910 nM | 5330 nM | 0.362 | 0.638 | 0.919 | 0.121 | 0.0412 | 0.179 | 0.287 | 0.227 | 2.49 | 4.08 | 4.48 | 1.23 | 1.71 | 2.14 | 2.19 | 5.47
14 | c1ccc2c(-c3cnn4cc(-c5ccc(N6CCNCC6)cc5)cnc34)ccnc2c1 + Cc1nc(Nc2ncc(C(=O)Nc3c(C)cccc3Cl)s2)cc(N2CCN(CCO)CC2)n1 [dasatinib] | 1340 nM | 2090 nM | 3180 nM | 999 nM | 1790 nM | 1580 nM | 3060 nM | 3050 nM | 0.00161 | 0.00229 | 0.00332 | 0.0011 | 0.00191 | 0.00173 | 0.00532 | 0.00301 | 2.03 | 2.41 | 3.1 | 1.77 | 2.19 | 2.19 | 2.51 | 3.73
